Assay results from publication PMC5699498 (Protein Science : A Publication of the Protein Society, 2017).

Molecular target: Lpg2936 (Legionella pneumophila, UniProt Q5ZRE6)
Assay: biochemical

Chain of Lpg2936 (Q5ZRE6 1-244 limits assumed): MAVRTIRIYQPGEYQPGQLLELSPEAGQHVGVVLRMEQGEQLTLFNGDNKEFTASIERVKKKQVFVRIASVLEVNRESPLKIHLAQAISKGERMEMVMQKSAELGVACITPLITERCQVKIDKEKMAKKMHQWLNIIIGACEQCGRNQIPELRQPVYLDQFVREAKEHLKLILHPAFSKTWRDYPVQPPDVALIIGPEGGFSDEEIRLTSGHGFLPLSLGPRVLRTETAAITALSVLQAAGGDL

C[S+](CC[C@H](N)C(=O)O)C[C@H]1O[C@@H](n2cnc3c(N)ncnc32)[C@H](O)[C@@H]1O (stereo partly shown) [S‐adenosyl‐L‐methionine]
Kd: 12 nM
